From patent US8921414B2, “Spiroketals” (EcoBiotics Ltd, priority 2005, dated 2014) come the findings set out here.

In one data set the test system is breast MCF-7. Description: Additional in vitro activity: antitumor activity, MCF-7. Type of data set: cell-based, human. The settings on record: concentration with activity.
A further data set relates to K562 leukemia. Nature of the data set: Cell growth inhibition (Table 22), K562. The settings on record: Homo sapiens, read-out: IC50 (drug dose which inhibits cell growth by 50%) K562. Type of data set: cell-based. The method, then:
(§1) The isolated compounds were tested against a number of human and non-human cancer cell lines. The human tumor cell lines were: MCF-7, MDA-MB-231 and T47D, breast cancer; DU145 and PC3, prostate cancer; CI80-13S, ovarian cancer; MM96L, D04, SkMel5, MM418c5 melanoma; HT29, colon cancer; K562 and HL60, leukemia. Mouse cell lines were the B16 mouse melanoma and LK2 UV-induced squamous cell carcinoma (SCC). Neonatal foreskin fibroblasts (NFF) were used as normal control cells. Cells were cultured at 37° C. in 5% carbon dioxide/air, in RPMI 1640 medium containing 10% fetal calf serum.

The subject of the next data set is Bacillus subtilis. Description: ProTOX (Bs) antibacterial bioassay. Type of data set: cell-based. The note with it: for Bs LD99: weight of chemical in last well with activity, real value may be lower. The text has this: ProTOX, (alternatively referred to herein as Bs) is an antibacterial bioassay, broadly applicable to most aerobic and anaerobic bacteria. The bioassay features a solid phase agar base into which the test compound has been incorporated together with a chromogen. As the bacteria multiply in the well, the chromogen is metabolised from blue in a two-step process to a colourless compound. Compounds with potent bactericidal activity inhibit bacterial metabolism of the chromogen while bacteriostatic compounds induce limited metabolism as indicated by an intermediate pink colour. ProTOX is broadly applicable to a range of gram-positive and gram-negative bacteria under aerobic and microaerophilic conditions. ProTOX assays were carried out using Bacillus subtilis. Briefly, in ProTOX, the bacteria (24 hour broth) were applied to the surface of an agar matrix containing the test sample and allowed to grow for 48 h. The assay was monitored at 24 and 48 hours and the active wells noted. Known antibiotics yield consistent colour transitions which are concentration and time dependent. These patterns provided an important guide to the early recognition of interesting characteristics.

The subject of a further data set is Haemonchus contortus. Description: NemaTOX (Ne) anthelmintic larval development bioassay. The settings on record: for Ne LD99: weight of chemical in last well with activity, real value may be lower. On the procedure:
NemaTOX (alternatively referred to herein as Ne) is an anthelmintic bioassay, applicable to all parasitic nematodes with free-living life cycle stages, and can be used as a screen to detect activity and define the species spectrum of compounds against parasitic nematodes and examine the impact of pre-existing resistance to other anthelmintic classes on potency. Haemonchus contortus was utilised for this assay.
The effect on larval development is determined in this assay by the method described by Gill et al. (1995) Int. J. Parasitol. 25: 463-470. Briefly, in this assay nematode eggs were applied to the surface of an agar matrix containing the test sample and allowed to develop through to the L3, infective stage (6 days). At this time the stage of larval development reached and any unusual features (deformity, paralysis, toxicity) were noted by microscopic examination.

The subject of data set [1] is normal human fibroblasts (NFF). Description: Additional in vitro activity: cytotoxic activity, NFF. Type of data set: cell-based. The note with it: concentration with activity.
The next data set relates to Giardia spp. Description: TriTOX (Gi) anti-protozoan bioassay. Type of data set: cell-based. The note with it: for Gi LD99: weight of chemical in last well with activity, real value may be lower. The text has this:
TriTOX (alternatively referred to herein as Gi) is a microtitre plate based chromogenic bioassay for the screening of anti-protozoan activity of pathogenic, anaerobic/microaerophilic protozoans for example Giardia spp. and Trichomonas spp. The bioassays are run under anaerobic conditions and features species specific chromogens. […] Aliquots of each concentration(s) are applied to the wells of 96-well microtitre plates and diluted with media. […] The lowest concentration at which the compound is active is noted as the minimum inhibitory concentration (MIC). Additionally, microscopic inspection is carried out to identify any patterns of morphological change that may be consistent with a type of toxicity and therefore mode of action. Giardia spp. was utilized for this assay.

A further data set deals with CI80-13S ovarian cancer. Description: Cell growth inhibition (Table 22), C180-13S. Type of data set: cell-based. The settings on record: Homo sapiens, read-out: IC50 (drug dose which inhibits cell growth by 50%) C180-13S. On the procedure: as §1
The test system of another data set is melanoma MM418c5. Description: Additional in vitro activity: antitumor activity, MM418c5. The format is cell-based, human. The settings on record: concentration with activity.
A further data set has as its system MCF-7 breast cancer. Description: Cell growth inhibition (Table 22), MCF7. The format is cell-based. The note with it: Homo sapiens, read-out: IC50 (drug dose which inhibits cell growth by 50%) MCF7. The method, then: as §1
The subject of a further data set is MM96L melanoma. Nature of the data set: Cell growth inhibition (Table 22), MM96L. Type of data set: cell-based. The note with it: Homo sapiens, read-out: IC50 (drug dose which inhibits cell growth by 50%) MM96L. The method, then: as §1
A further data set deals with leukemia K562. Description: Additional in vitro activity: antitumor activity, K562. The format is cell-based, human. The note with it: concentration with activity.
For data set [2], the system named is Neonatal foreskin fibroblasts (NFF). Nature of the data set: Cell growth inhibition (Table 22), NFF. The format is cell-based. The settings on record: Homo sapiens, read-out: IC50 (drug dose which inhibits cell growth by 50%) NFF. On the procedure:
as §1

Data set [3] relates to EBV-infected peripheral blood mononuclear cells (PBMCs). Description: EBV transformation of donor PBMCs (anti-inflammatory screening). The settings on record: 2 μg/mL, 28 days, visual and 3H-T cpm. The format is cell-based, human. The method, then:
Three main assays were performed; transformation, regression and mixed lymphocyte reactions (MLRs). Reference is made to Moss et al., (D J, Rickinson A B, Pope J H: Long-term T-cell-mediated immunity to Epstein-Barr virus in man. III. Activation of cytotoxic T cells in virus-infected leukocyte cultures. Int J Cancer 1979, 23:618-625). Complete regression of virus-induced transformation in cultures of seropositive donor leukocytes
Both regression and MLR quantitative experimental results were obtained visually and by the addition of [methyl-^3H]thymidine (3H-T). 3H-T is a nucleoside analogue and is incorporated into the DNA of proliferating cells. If cells are proliferating, the counts/minute (cpm) is high; if cells are dead, the cpm is low.
EBV seronegative and seropositive donors' peripheral blood mononuclear cells (PBMCs) were infected with EBV. […]
The cells were then incubated for 28 days when results were determined visually and by the addition of 3H-T to obtain quantitative data.
The individual transformation summaries were determined by visual data and 3H-T cpm data from EBV seronegative_donors' peripheral blood mononuclear cells (PBMC). […] The 3H-T cpm cut-off values were determined for each individual assay by this control value, plus and minus a five (5)-fold difference. […]

The test system of the next data set is melanoma MM96L. Nature of the data set: Additional in vitro activity: antitumor activity, MM96L. The format is cell-based, human. The note with it: concentration with activity.
In the next data set the test system is DU145 prostate cancer. Nature of the data set: Cell growth inhibition (Table 22), DU145. The format is cell-based. The note with it: Homo sapiens, DU-145; read-out: IC50 (drug dose which inhibits cell growth by 50%) DU145. The method, then: as §1
A further data set deals with ovarian C180-13S. Nature of the data set: Additional in vitro activity: antitumor activity, C180-13S. Type of data set: cell-based, human. The settings on record: concentration with activity.

Values after ≈ are worked out from the molar mass of the structure shown.

In general, IC50 refers to the point on the concentration scale where inhibition reaches its midpoint. As for `CCCCCCCCCCCCCC(O)CC1CC(O)CC2(CC3OC(=O)C=CC3O2)O1` (stereo not drawn) [EBI-23], the “antitumor activity against breast MCF-7 at” value in the data set on breast MCF-7 was 1 µg/mL. Moreover, the IC50 with K562 leukemia turned out to be 1.7 µg/mL (≈ 3.76 µM); in the data set on CI80-13S ovarian cancer it was 0.2 µg/mL (≈ 0.442 µM); in the data set with MCF-7 breast cancer, 0.5 µg/mL (≈ 1.1 µM); in the data set with MM96L melanoma it was 0.15 µg/mL (≈ 0.331 µM); in data set [2], 2 µg/mL (≈ 4.42 µM); in the data set with DU145 prostate cancer it was 0.7 µg/mL (≈ 1.55 µM). In addition, the “Bs Titre” value in the data set with Bacillus subtilis was determined as 16. Also, the entries for the “Bs LD99” value in the data set on Bacillus subtilis (listed as EB77.LA4.92-100), with Bacillus subtilis (listed as EB116.LA3.31-27/32) and in the data set on Bacillus subtilis (listed as EB116.LA3.60-40/42) were 3.9 µg/mL, 3.1 µg/mL and 6.3 µg/mL, respectively. In the data set on Haemonchus contortus, the “Ne Titre” value amounted to 1. The “Ne LD99” value with Haemonchus contortus (listed as EB77.LA4.92-100) turned out to be 63 µg/mL; with Haemonchus contortus (listed as EB116.LA3.31-27/32), 100 µg/mL. In addition, the “cytotoxic activity against normal human fibroblasts (NFF) at” value in data set [1] turned out to be 30 µg/mL. For the same compound, in the data set on Giardia spp., the “Gi Titre” value was 4. Besides, the “Gi LD99” value stood at 16 µg/mL with Giardia spp. (listed as EB77.LA4.92-100), 50 µg/mL in the data set on Giardia spp. (listed as EB116.LA3.31-27/32) and 50 µg/mL in the data set on Giardia spp. (listed as EB116.LA3.60-40/42). For the same compound, the “antitumor activity against melanoma MM418c5 at” value in the data set on melanoma MM418c5 was determined as 1 µg/mL. Further, the “antitumor activity against leukemia K562 at” value in the data set with leukemia K562 came to 3 µg/mL. In addition, the inhibition of transformation result in [3] is reported as “strong inhibition”. For the same compound, the “antitumor activity against melanoma MM96L at” value in the data set on melanoma MM96L stood at 1 µg/mL. The “antitumor activity against ovarian C180-13S at” value in the data set with ovarian C180-13S was determined as 1 µg/mL.

In the case of `CC/C=C/CCCCCCCCCCCC(O)CC1CC(O)CC2(CC3OC(=O)C=CC3O2)O1` (stereo not drawn) [EBI-24], the “antitumor activity against breast MCF-7 at” value with breast MCF-7 came out at 10 µg/mL. In addition, the IC50 in the data set on K562 leukemia amounted to 0.6 µg/mL (≈ 1.25 µM); with CI80-13S ovarian cancer, 0.75 µg/mL (≈ 1.57 µM); in the data set on MCF-7 breast cancer it was 0.2 µg/mL (≈ 0.418 µM); with MM96L melanoma it was 1.3 µg/mL (≈ 2.72 µM); in data set [2], 0.8 µg/mL (≈ 1.67 µM); with DU145 prostate cancer, 0.7 µg/mL (≈ 1.46 µM). Besides, the “Bs LD99” value in the data set on Bacillus subtilis is 13 µg/mL. The “Ne LD99” value with Haemonchus contortus (listed as EB116.LA3.31-36/40) is 100 µg/mL; in the data set on Haemonchus contortus (listed as EB116.LA3.60-47/49), 50 µg/mL. The “cytotoxic activity against normal human fibroblasts (NFF) at” value in data set [1] worked out at 10 µg/mL. In addition, the “Gi LD99” value in the data set with Giardia spp. (listed as EB116.LA3.31-36/40) worked out at 100 µg/mL; in the data set with Giardia spp. (listed as EB116.LA3.60-47/49) it was 50 µg/mL. Besides, the “antitumor activity against melanoma MM418c5 at” value in the data set with melanoma MM418c5 came to 10 µg/mL. In addition, in the data set on leukemia K562, the “antitumor activity against leukemia K562 at” value was 10 µg/mL. Moreover, the inhibition of transformation result in data set [3] is “strong inhibition”. Moreover, in the data set with melanoma MM96L, the “antitumor activity against melanoma MM96L at” value stood at 3 µg/mL. For the same compound, the “antitumor activity against ovarian C180-13S at” value in the data set on ovarian C180-13S came out at 3 µg/mL.
